Counter-ions that a name gives are not always drawn. Like-named read-outs stand apart in the source and are kept apart here.
What was measured:
[1] = test system: intestinal resorption of cholesterol; assay: Inhibition of intestinal resorption of [26-^14 C]-cholesterol (CHORES) in squirrel monkeys; type: in vivo; settings: Primates, po, 60 h, 100 μmol/kg p.o., percent of control values determined prior to medication (pre-period), feces collected 2.5 days
From the text: Squirrel monkeys are orally administered the substances to be investigated together with a test feed containing a protein, starch, triolein and [26-^14 C]-cholesterol. Thereafter, the feces is collected for 2.5 days. The difference between the administered and the collected radioactive cholesterol determined in the feces is taken as the measurement of resorbed cholesterol. The cholesterol resorption (CHORES) is expressed in percentages of the control values determined prior to the medication.
(§1) The results which have been obtained with some representative products in accordance with the invention are reproduced in Table I. For each of the compounds indicated in Table I the cholesterol resorption, determined at a dosage of 100 μmol/kg p.o., is given in percentages of the control values determined prior to the medication (pre-period). Moreover, the Table contains data concerning the acute toxicity of the compounds investigated (LD50 in mg/kg in the case of single oral or intravenous administration to mice).

[2] = Acute toxicity, single oral or intravenous administration to mice; settings: mouse, in vivo
From the text: as §1

[3] = i.v., single intravenous administration to mice, read-out: LD50 i.v.
[4] = p.o., single oral administration to mice, read-out: LD50 p.o.

Row | SMILES | response vs control in vivo at 100 µmol/kg [1] | LD50 [2, 3] | LD50 [2, 4]
1 | CC[C@H](CC[C@@H](C)[C@H]1CC[C@H]2[C@@H]3CC[C@H]4C[C@@H](OCCOCCOP(=O)([O-])OCC[N+](C)(C)C)CC[C@]4(C)[C@H]3CC[C@]12C)C(C)C [Example 4a, O-[hydroxy-[2-[2-(3β-stigmastanyloxy)ethoxy]ethoxy]phosphinyl]cholinehydroxide internal salt] | 30% |  | 
2 | CC(C)CCC[C@@H](C)[C@H]1CC[C@H]2[C@@H]3CC=C4C[C@@H](OCCOP(=O)([O-])OCC[N+](C)(C)C)CC[C@]4(C)[C@H]3CC[C@]12C [Example 2q, O-[[2-(cholest-5-en-3β-yloxy)ethoxy]hydroxyphosphinyl]choline hydroxide internal salt] | 16% | 250 mg/kg | 4000 mg/kg
3 | CC[C@H](CC[C@@H](C)[C@H]1CC[C@H]2[C@@H]3CC=C4C[C@@H](OC(=O)OCCOP(=O)([O-])OCC[N+](C)(C)C)CC[C@]4(C)[C@H]3CC[C@]12C)C(C)C [Example 16, O-[hydroxy-[2-[[(stigmast-5-en-3β-yloxy)carbonyl]oxy]ethoxy]-phosphinyl]choline hydroxide internal salt] | 40% |  | 
4 | CC[C@H](CC[C@@H](C)[C@H]1CC[C@H]2[C@@H]3CC[C@H]4C[C@@H](OC(=O)NCCOP(=O)([O-])OCC[N+](C)(C)C)CC[C@]4(C)[C@H]3CC[C@]12C)C(C)C [Example 5, O-[hydroxy-[2-[1-(5α-stigmastan-3β-yloxy)formamido]ethoxy]phosphinyl]choline hydroxide internal salt] | 40% |  | 
5 | CC[C@H](/C=C/[C@@H](C)[C@H]1CC[C@H]2[C@@H]3CC=C4C[C@@H](OC(=O)NCCOP(=O)([O-])OCC[N+](C)(C)C)CC[C@]4(C)[C@H]3CC[C@]12C)C(C)C [Example 7a, O-[hydroxy-[2-[1-[(E)-stigmasta-5,22-dien-3β-yloxy]formamido]ethoxy]phosphinyl]choline hydroxide internal salt] | 35% |  | 
6 | CC[C@H](CC[C@@H](C)[C@H]1CC[C@H]2[C@@H]3CC[C@H]4C[C@@H](OC(=O)CCCOP(=O)([O-])OCC[N+](C)(C)C)CC[C@]4(C)[C@H]3CC[C@]12C)C(C)C [Example 2k, O-[hydroxy-[3-[(3β-stigmastanyloxy)carbonyl]propoxy]phosphinyl]choline hydroxide internal salt] | 39% | 250 mg/kg | 4000 mg/kg
7 | CC[C@H](CC[C@@H](C)[C@H]1CC[C@H]2[C@@H]3CC[C@H]4C[C@@H](OC(=O)OCCOP(=O)([O-])OCC[N+](C)(C)C)CC[C@]4(C)[C@H]3CC[C@]12C)C(C)C [Example 2a, O-[[2-[[(5α-stigmastan-3β-yloxy)carbonyl]oxy]ethoxy]hydroxyphosphinyl]choline hydroxide internal salt] | 38% | 250 mg/kg | 4000 mg/kg
8 | CC[C@H](/C=C/[C@@H](C)[C@H]1CC[C@H]2[C@@H]3CC=C4C[C@@H](OCCOP(=O)([O-])OCC[N+](C)(C)C)CC[C@]4(C)[C@H]3CC[C@]12C)C(C)C [Example 2r, O-[hydroxy-[2-(stigmasta-5,22-dien-3β-yloxy)ethoxy]phosphinyl]cholinehydroxide internal salt] | 37% | 500 mg/kg | 4000 mg/kg
9 | CC[C@H](CC[C@@H](C)[C@H]1CC[C@H]2[C@@H]3CC[C@H]4C[C@@H](OC(=O)NCCOP(=O)([O-])OCC[n+]5ccccc5)CC[C@]4(C)[C@H]3CC[C@]12C)C(C)C [Example 6, 1-[2-[[hydroxy-[2-[1-(5α-stigmastan-3β-yloxy)-formamido]ethoxy]phosphinyl]oxy]ethyl]pyridinum hydroxide internal salt] | 31% |  | 4000 mg/kg
